Here are results for 14 compounds from patent publication US10174047B2, “Thienodiazepine derivatives or pharmaceutically acceptable salts thereof, and pharmaceutical composition including the same as an active ingredient” (Industry-University Cooperation Foundation Hanyang …, priority 2015, dated 2019).

SMILES strings stand for the structures. Where only a bound is given, the exact number is not on record here.

This assay deals with A375P cell line (melanoma). Description: Proliferation inhibition activity against A375P cell line (MTT assay). It is filed as cell-based. As to conditions: A375P melanoma cells; for GI50: MTT assay, read-out: A375P (GI50); for effects against A375P: statement in words. The procedure: Measurement of Proliferation Inhibition Activity Against A375P Cell Line (Melanoma)
An A375P cell line purchased from ATCC was cultured in a DMEM medium [containing 10% FBS, 1% penicillin/streptomycin] at 37° C. in the presence of 5% CO2. The cultured A375P cell line was taken using 0.05% trypsin-0.02% EDTA, and seeded into a 96-well plate at a density of 5×10^3 cells per well.
Cell viability was measured using an MTT [3-(4,5-dimethylthiazol-2-yl)-2,5-diphenyltetrazolium bromide] assay (CellTiter 96 Assay, Promega) as follows. 15 μl of dye was placed per well, the cells were cultured for 2 hours, and then treated with 100 μl of a stop solution, and after 24 hours, absorbance was measured. One day after plating, they were treated with compounds. For treatment with compounds, […] of stock was prepared, and serially diluted to one-third in dimethyl sulfoxide (DMSO) to prepare a 12-point test compound plate, and 0.5 μl was added (final concentration DMSO 0.5%).
In the following Tables 1 to 3, in a case of GI50 being 10 to 30 μM, it was indicated as (+), in a case of it being 1 to 10 μM, it was indicated as (++), and in case of being less than 1 μM, it was indicated as (+++).
(In general: Formazan colour is commonly taken as a measure of viable cells.)

The term GI50 denotes the concentration that inhibits growth by half.

For `N#Cc1ccccc1Sc1ccccc1C(=O)Nc1cccc(C2=Nc3cscc3NC(=O)C2)c1` [Example 32, 2-(2-cyanophenylthio)-N-(3-(2-oxo-2,3-dihydro-1H-thieno[3,4-b][1,4]diazepine-4-yl)phenyl)benzamide], the concentration for 50% growth inhibition (GI50) lay within 10 to 30 µM. Turning to `O=C(Cc1ccc(-c2ccccc2)cc1)Nc1cccc(C2=Nc3cscc3NC(=O)C2)c1` [Example 33, 2-(biphenyl-4-yl)-N-(3-(2-oxo-2,3-dihydro-1H-thieno[3,4-b][1,4]diazepine-4-yl)phenyl)acetamide], the GI50 is 10 to 30 µM.

Consider `Cc1cc(C)cc(C(=O)Nc2cccc(C3=Nc4cscc4NC(=O)C3)c2)c1` [Example 34, 3,5-dimethyl-N-(3-(2-oxo-2,3-dihydro-1H-thieno[3,4-b][1,4]diazepine-4-yl)phenyl)benzamide], for which the GI50 was 10 to 30 µM. Still for that read-out and setting: next, `O=C(Cc1ccccc1F)Nc1cccc(C2=Nc3cscc3NC(=O)C2)c1` [Example 35, 2-(2-fluorophenyl)-N-(3-(2-oxo-2,3-dihydro-1H-thieno[3,4-b][1,4]diazepine-4-yl)phenyl)acetamide]: 10 to 30 µM. As for `O=C1CC(c2cccc(NC(=O)c3ccc4ccccc4n3)c2)=Nc2cscc2N1` [Example 36, N-(3-(2-oxo-2,3-dihydro-1H-thieno[3,4-b][1,4]diazepine-4-yl)phenyl)quinoline-2-carboxamide], the GI50 was in the range of 10 to 30 µM.

As to `O=C1CC(c2cccc(NC(=O)c3cnc4ccccc4c3)c2)=Nc2cscc2N1` [Example 37, N-(3-(2-oxo-2,3-dihydro-1H-thieno[3,4-b][1,4]diazepine-4-yl)phenyl)quinoline-3-carboxamide], the 50% growth inhibitory concentration (GI50) was 10 to 30 µM. `Cc1c(C)c2c(c(C)c1O)CC[C@](C)(C(=O)Nc1cccc(C3=Nc4cscc4NC(=O)C3)c1)O2` [Example 38, (R)-6-hydroxy-2,5,7,8-tetramethyl-N-(3-(2-oxo-2,3-dihydro-1H-thieno[3,4-b][1,4]diazepine-4-yl)phenyl)chroman-2-carboxamide]: the GI50 fell in the range of 10 to 30 µM. As for `O=C1CC(c2ccc(NC(=O)Nc3ccc(Cl)c(C(F)(F)F)c3)cc2)=Nc2cscc2N1` [Example 39, 1-(4-chloro-3-(trifluoromethyl)phenyl)-3-(4-(2-oxo-2,3-dihydro-1H-thieno[3,4-b][1,4]diazepine-4-yl)phenyl)urea], the concentration for 50% growth inhibition (GI50) was less than 1 µM and the “effects against A375P” value is “significant effects”. For the compound `O=C1CC(c2ccc(NC(=O)Nc3ccc(Cl)cc3)cc2)=Nc2cscc2N1` [Example 40, 1-(4-chlorophenyl)-3-(4-(2-oxo-2,3-dihydro-1H-thieno[3,4-b][1,4]diazepine-4-yl)phenyl)urea], the GI50 is 1 to 10 µM. The same measure, in the same setting: in the case of `O=C1CC(c2ccc(NC(=O)Nc3cccc(Cl)c3)cc2)=Nc2cscc2N1` [Example 41, 1-(3-chlorophenyl)-3-(4-(2-oxo-2,3-dihydro-1H-thieno[3,4-b][1,4]diazepine-4-yl)phenyl)urea] it was 10 to 30 µM. On to `O=C1CC(c2ccc(NC(=O)Nc3ccc(Cl)c(Cl)c3)cc2)=Nc2cscc2N1` [Example 42, 1-(3,4-dichlorophenyl)-3-(4-(2-oxo-2,3-dihydro-1H-thieno[3,4-b][1,4]diazepine-4-yl)phenyl)urea], for which the GI50 lay within 1 to 10 µM. For `O=C1CC(c2ccc(NC(=O)Nc3cc(Cl)cc(Cl)c3)cc2)=Nc2cscc2N1` [Example 44, 1-(3,5-dichlorophenyl)-3-(4-(2-oxo-2,3-dihydro-1H-thieno[3,4-b][1,4]diazepine-4-yl)phenyl)urea], the GI50 is less than 1 µM and the “effects against A375P” value is listed as “significant effects”.

Regarding `O=C1CC(c2ccc(NC(=O)Nc3ccccc3F)cc2)=Nc2cscc2N1` [Example 45, 1-(2-fluorophenyl)-3-(4-(2-oxo-2,3-dihydro-1H-thieno[3,4-b][1,4]diazepine-4-yl)phenyl)urea], the GI50 was 10 to 30 µM.

On to `O=C1CC(c2cccc(NC(=O)Nc3ccc(Cl)c(C(F)(F)F)c3)c2)=Nc2cscc2N1` [Example 46, 1-(4-chloro-3-(trifluoromethyl)phenyl)-3-(3-(2-oxo-2,3-dihydro-1H-thieno[3,4-b][1,4]diazepine-4-yl)phenyl)urea], for which the GI50 was 1 to 10 µM.
